Experimental data: ChEMBL document CHEMBL1137726, “Novel 4-aryl-pyrido[1,2-c]pyrimidines with dual SSRI and 5-HT1A activity, part 1” (Eur J Med Chem, 2009)
Activity calls are given as the source filed them. The rule behind the calls is not given here.

Columns and labels:
[1] = target: T1, 5-hydroxytryptamine receptor 1A (Rattus norvegicus, UniProt P19327); assay: Displacement of [3H]8-OH-DPAT from 5HT1A receptor in rat brain membranes; assay type: cell membranes
T1 sequence (P19327 whole entry): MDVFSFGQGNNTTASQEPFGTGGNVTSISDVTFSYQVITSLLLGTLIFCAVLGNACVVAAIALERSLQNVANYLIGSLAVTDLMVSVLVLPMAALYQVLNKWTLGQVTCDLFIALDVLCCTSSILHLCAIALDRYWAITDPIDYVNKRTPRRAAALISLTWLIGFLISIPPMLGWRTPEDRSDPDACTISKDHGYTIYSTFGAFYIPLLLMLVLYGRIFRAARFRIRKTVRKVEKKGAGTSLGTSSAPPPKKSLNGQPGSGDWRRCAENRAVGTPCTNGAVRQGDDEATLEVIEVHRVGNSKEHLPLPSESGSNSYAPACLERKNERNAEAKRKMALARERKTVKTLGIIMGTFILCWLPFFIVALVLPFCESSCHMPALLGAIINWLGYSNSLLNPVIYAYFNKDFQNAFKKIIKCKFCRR

Mus musculus [2] = assay: Induction of hypothermia in Albino Swiss mouse assessed as change in body temperature pretreated for 30 mins at 20 mg/kg, ip measured 120 mins after drug dose; assay type: functional, organism-based; design: dose 20 mg/kg
Mus musculus [3] = assay: Induction of hypothermia in Albino Swiss mouse assessed as change in body temperature pretreated for 30 mins at 5 mg/kg, ip measured 60 mins after drug dose; assay type: functional, organism-based; design: dose 5 mg/kg
Mus musculus [4] = assay: Induction of hypothermia in Albino Swiss mouse assessed as change in body temperature pretreated for 30 mins at 10 mg/kg, ip measured 30 mins after drug dose; assay type: functional, organism-based; design: dose 10 mg/kg
Mus musculus [5] = assay: Induction of hypothermia in Albino Swiss mouse assessed as change in body temperature pretreated for 30 mins at 10 mg/kg, ip measured 120 mins after drug dose; assay type: functional, organism-based; design: dose 10 mg/kg
Mus musculus [6] = organism: Mus musculus; conditions: Albino Swiss, 10 mg/kg
Description: Induction of hypothermia in 0.1 mg/kg WAY 100635 pretreated Albino Swiss mouse assessed as change in body temperature at 10 mg/kg, ip measured 30 mins after drug dose

Mus musculus [7] = assay: Effect on spontaneous locomotor activity in Albino Swiss mouse assessed as number of light-beam crossings in actiometers pretreated for 30 mins at 10 mg/kg, ip measured during 30 mins post drug dose; assay type: functional; conditions: route intraperitoneal
Mus musculus [8] = organism: Mus musculus; conditions: Albino Swiss, 10 mg/kg; remark: listed apart in the source
Description: Induction of hypothermia in 0.1 mg/kg WAY 100635 pretreated Albino Swiss mouse assessed as change in body temperature at 10 mg/kg, ip measured 60 mins after drug dose

Mus musculus [9] = assay: Induction of hypothermia in Albino Swiss mouse assessed as change in body temperature pretreated for 30 mins at 10 mg/kg, ip measured 60 mins after drug dose; assay type: functional, organism-based; design: dose 10 mg/kg
[10] = target: Sodium-dependent serotonin transporter (Rattus norvegicus, UniProt P31652); assay: Displacement of [3H]citalopram from 5HTT in rat brain membranes; assay type: cell membranes
Sequence of Sodium-dependent serotonin transporter (P31652 whole entry): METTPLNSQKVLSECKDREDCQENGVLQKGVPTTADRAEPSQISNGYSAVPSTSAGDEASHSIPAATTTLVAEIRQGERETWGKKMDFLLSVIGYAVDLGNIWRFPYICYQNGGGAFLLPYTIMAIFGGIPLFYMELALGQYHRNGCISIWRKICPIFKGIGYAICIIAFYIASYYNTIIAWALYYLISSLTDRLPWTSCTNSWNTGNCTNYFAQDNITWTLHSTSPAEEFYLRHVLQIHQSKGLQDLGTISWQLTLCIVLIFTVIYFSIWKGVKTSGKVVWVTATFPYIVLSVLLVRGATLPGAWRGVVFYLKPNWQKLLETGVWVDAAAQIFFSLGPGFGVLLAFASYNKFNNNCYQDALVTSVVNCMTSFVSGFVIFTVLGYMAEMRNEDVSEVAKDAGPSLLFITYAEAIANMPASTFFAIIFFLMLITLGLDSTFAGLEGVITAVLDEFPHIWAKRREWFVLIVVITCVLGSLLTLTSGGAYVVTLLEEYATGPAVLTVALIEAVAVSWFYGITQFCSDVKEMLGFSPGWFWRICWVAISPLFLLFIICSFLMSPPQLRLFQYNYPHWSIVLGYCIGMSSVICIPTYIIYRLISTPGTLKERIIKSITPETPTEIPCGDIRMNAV

Mus musculus [11] = assay: Induction of hypothermia in Albino Swiss mouse assessed as change in body temperature pretreated for 30 mins at 10 mg/kg, ip measured 90 mins after drug dose; assay type: functional, organism-based; design: dose 10 mg/kg
Mus musculus [12] = assay: Induction of hypothermia in Albino Swiss mouse assessed as change in body temperature pretreated for 30 mins at 5 mg/kg, ip measured 30 mins after drug dose; assay type: functional, organism-based; design: dose 5 mg/kg
Mus musculus [13] = assay: Induction of hypothermia in Albino Swiss mouse assessed as change in body temperature pretreated for 30 mins at 20 mg/kg, ip measured 90 mins after drug dose; assay type: functional, organism-based; design: dose 20 mg/kg
Mus musculus [14] = assay: Reduction of immobility time in Albino Swiss mouse at 20 mg/kg, ip pretreated for 30 mins by forced swimming test; assay type: functional; design: scale not given: the % may be the effect or the level left
Mus musculus [15] = assay: Induction of hypothermia in Albino Swiss mouse assessed as change in body temperature pretreated for 30 mins at 20 mg/kg, ip measured 30 mins after drug dose; assay type: functional, organism-based; design: dose 20 mg/kg
Mus musculus [16] = assay: Induction of hypothermia in Albino Swiss mouse assessed as change in body temperature pretreated for 30 mins at 20 mg/kg, ip measured 60 mins after drug dose; assay type: functional, organism-based; design: dose 20 mg/kg
Mus musculus [17] = assay: Induction of hypothermia in Albino Swiss mouse assessed as change in body temperature pretreated for 30 mins at 5 mg/kg, ip measured 120 mins after drug dose; assay type: functional, organism-based; design: dose 5 mg/kg
Mus musculus [18] = assay: Induction of hypothermia in Albino Swiss mouse assessed as change in body temperature pretreated for 30 mins at 5 mg/kg, ip measured 90 mins after drug dose; assay type: functional, organism-based; design: dose 5 mg/kg
Mus musculus [19] = assay: Effect on spontaneous locomotor activity in Albino Swiss mouse assessed as number of light-beam crossings in actiometers pretreated for 30 mins at 10 mg/kg, ip measured during 6 mins post drug dose; assay type: functional; conditions: route intraperitoneal
Mus musculus [20] = assay: Induction of hypothermia in 0.1 mg/kg WAY 100635 pretreated Albino Swiss mouse assessed as change in body temperature at 20 mg/kg, ip measured 60 mins after drug dose; assay type: functional, organism-based
Mus musculus [21] = assay: Induction of hypothermia in 0.1 mg/kg WAY 100635 pretreated Albino Swiss mouse assessed as change in body temperature at 20 mg/kg, ip measured 30 mins after drug dose; assay type: functional, organism-based
Mus musculus [22] = assay: Effect on spontaneous locomotor activity in Albino Swiss mouse assessed as number of light-beam crossings in actiometers pretreated for 30 mins at 20 mg/kg, ip measured during 30 mins post drug dose; assay type: functional; conditions: route intraperitoneal
Mus musculus [23] = assay: Reduction of immobility time in Albino Swiss mouse at 10 mg/kg, ip pretreated for 30 mins by forced swimming test; assay type: functional; design: scale not given: the % may be the effect or the level left
Mus musculus [24] = assay: Effect on spontaneous locomotor activity in Albino Swiss mouse assessed as number of light-beam crossings in actiometers pretreated for 30 mins at 20 mg/kg, ip measured during 6 mins post drug dose; assay type: functional; conditions: route intraperitoneal
Mus musculus [25] = assay: Reduction of immobility time in Albino Swiss mouse at 1 mg/kg, ip pretreated for 30 mins by forced swimming test; assay type: functional; design: scale not given: the % may be the effect or the level left; conditions: route intraperitoneal
Mus musculus [26] = assay: Reduction of immobility time in Albino Swiss mouse at 2 mg/kg, ip pretreated for 30 mins by forced swimming test; assay type: functional; design: scale not given: the % may be the effect or the level left; conditions: route intraperitoneal
Mus musculus [27] = assay: Reduction of spontaneous locomotor activity in Albino Swiss mouse at 20 mg/kg, ip during 6 mins; assay type: functional, organism-based; design: dose 20 mg/kg
Mus musculus [28] = assay: Reduction of spontaneous locomotor activity in Albino Swiss mouse at 20 mg/kg, ip during 30 mins; assay type: functional, organism-based; design: dose 20 mg/kg
Mus musculus [29] = assay: Inhibition of 8-OH-DPAT-induced hypothermia in Albino Swiss mouse assessed as change in body temperature at 20 mg/kg, ip; assay type: functional, organism-based; design: dose 20 mg/kg

O=c1c(-c2ccc(F)cc2)c2ccccn2c(=O)n1CCCCN1CCC(c2c[nH]c3ccccc23)CC1
Ki [1]: 9.2 nM | deltaT (Mus musculus [2]): -0.6 °C | deltaT (Mus musculus [3]): -0.3 °C | deltaT (Mus musculus [4]): -1.2 °C | deltaT (Mus musculus [5]): -0.8 °C | deltaT (Mus musculus [6]): -0.8 °C | Activity (Mus musculus [7]): 965 | deltaT (Mus musculus [8]): -0.8 °C | deltaT (Mus musculus [9]): -1.2 °C | Ki [10]: 37.6 nM | deltaT (Mus musculus [11]): -1 °C | deltaT (Mus musculus [12]): -0.4 °C | deltaT (Mus musculus [13]): -0.8 °C | Activity (Mus musculus [14]; route intraperitoneal): 34% | deltaT (Mus musculus [15]): -1.2 °C | deltaT (Mus musculus [16]): -1 °C | deltaT (Mus musculus [17]): -0.3 °C | deltaT (Mus musculus [18]): -0.4 °C | Activity (Mus musculus [19]): 376

O=c1c(-c2ccc(Cl)cc2)c2ccccn2c(=O)n1CCCCN1CCC(c2c[nH]c3ccccc23)CC1
Ki [1]: 37.1 nM | deltaT (Mus musculus [2]): -0.7 °C | deltaT (Mus musculus [3]): -0.4 °C | deltaT (Mus musculus [4]): -0.4 °C | deltaT (Mus musculus [20]): -0.2 °C | deltaT (Mus musculus [5]): -0.1 °C | deltaT (Mus musculus [9]): -0.1 °C | Ki [10]: 280 nM | deltaT (Mus musculus [11]): -0.1 °C | deltaT (Mus musculus [12]): -0.5 °C | deltaT (Mus musculus [13]): -1.1 °C | deltaT (Mus musculus [21]): -0.4 °C | deltaT (Mus musculus [15]): -1.2 °C | deltaT (Mus musculus [16]): -1 °C | deltaT (Mus musculus [17]): -0.2 °C | deltaT (Mus musculus [18]): -0.4 °C

COc1ccc(-c2c(=O)n(CCCCN3CCC(c4c[nH]c5ccc(OC)cc45)CC3)c(=O)n3ccccc23)cc1
Ki [1]: 78 nM | Ki [10]: 129 nM

COc1ccc2[nH]cc(C3CCN(CCCCn4c(=O)c(-c5ccccc5)c5ccccn5c4=O)CC3)c2c1
Ki [1]: 52.3 nM | Ki [10]: 129 nM

COc1ccc2[nH]cc(C3CCN(CCCCn4c(=O)c(-c5ccc(C)cc5)c5ccccn5c4=O)CC3)c2c1
Ki [1]: 59 nM | Ki [10]: 223 nM

O=c1c(-c2ccccc2)c2ccccn2c(=O)n1CCCCN1CCC(c2c[nH]c3ccccc23)CC1
Ki [1]: 10.9 nM | deltaT (Mus musculus [2]): -1.9 °C | deltaT (Mus musculus [3]): -0.5 °C | deltaT (Mus musculus [4]): -0.8 °C | deltaT (Mus musculus [20]): -0.3 °C | deltaT (Mus musculus [5]): -0.1 °C | deltaT (Mus musculus [9]): -0.4 °C | Activity (Mus musculus [22]): 926 | Activity (Mus musculus [23]; route intraperitoneal): 29% | Ki [10]: 58.1 nM | Activity (Mus musculus [24]): 409 | deltaT (Mus musculus [11]): -0.3 °C | deltaT (Mus musculus [12]): -0.4 °C | deltaT (Mus musculus [13]): -1.1 °C | deltaT (Mus musculus [21]): -0.5 °C | deltaT (Mus musculus [15]): -1.2 °C | deltaT (Mus musculus [16]): -1.3 °C | deltaT (Mus musculus [17]): -0.1 °C | deltaT (Mus musculus [18]): -0.4 °C

COc1ccc2[nH]cc(C3CCN(CCCCn4c(=O)c(-c5ccc(Cl)cc5)c5ccccn5c4=O)CC3)c2c1
Ki [1]: 41.1 nM | Ki [10]: 251 nM

Br.CCCN(CCC)C1CCc2cccc(O)c2C1 (configuration not stated)
Activity (Mus musculus [25]): 45% | Activity (Mus musculus [26]): 57%

COc1ccc2[nH]cc(C3CCN(CCCCn4c(=O)c(-c5ccc(F)cc5)c5ccccn5c4=O)CC3)c2c1
Ki [1]: 34.6 nM | Ki [10]: 54.6 nM

O=c1c(-c2ccccc2F)c2ccccn2c(=O)n1CCCCN1CCC(c2c[nH]c3ccccc23)CC1
Ki [1]: 4.8 nM | deltaT (Mus musculus [2]): -0.7 °C | deltaT (Mus musculus [3]): -0.3 °C | deltaT (Mus musculus [4]): -0.8 °C | deltaT (Mus musculus [20]): -0.1 °C | Activity (Mus musculus [27]): Active | deltaT (Mus musculus [5]): -0.1 °C | Activity (Mus musculus [7]): 399 | deltaT (Mus musculus [9]): -0.2 °C | Activity (Mus musculus [23]; route intraperitoneal): 40% | Ki [10]: 0.7 nM | Activity (Mus musculus [28]): Active | deltaT (Mus musculus [11]): -0.3 °C | deltaT (Mus musculus [12]): -0.5 °C | deltaT (Mus musculus [13]): -0.7 °C | deltaT (Mus musculus [21]): -0.3 °C | deltaT (Mus musculus [15]): -1.1 °C | deltaT (Mus musculus [16]): -0.8 °C | deltaT (Mus musculus [17]): -0.1 °C | deltaT (Mus musculus [18]): -0.1 °C | Activity (Mus musculus [19]): 179

Cc1ccc(-c2c(=O)n(CCCCN3CCC(c4c[nH]c5ccccc45)CC3)c(=O)n3ccccc23)cc1
Ki [1]: 5.8 nM | deltaT (Mus musculus [2]): -0.8 °C | deltaT (Mus musculus [3]): 0.2 °C | deltaT (Mus musculus [4]): -0.5 °C | deltaT (Mus musculus [20]): -0.2 °C | deltaT (Mus musculus [5]): -0.1 °C | deltaT (Mus musculus [9]): -0.3 °C | Activity (Mus musculus [23]): inactive | Ki [10]: 0.3 nM | deltaT (Mus musculus [11]): -0.1 °C | deltaT (Mus musculus [12]): -0.4 °C | deltaT (Mus musculus [13]): -0.7 °C | deltaT (Mus musculus [21]): -0.3 °C | Activity (Mus musculus [14]): inactive | deltaT (Mus musculus [15]): -1 °C | deltaT (Mus musculus [16]): -0.8 °C | deltaT (Mus musculus [17]): -0.1 °C | deltaT (Mus musculus [18]): -0.1 °C

COc1ccc2[nH]cc(C3CCN(CCCCn4c(=O)c(-c5ccccc5F)c5ccccn5c4=O)CC3)c2c1
Ki [1]: 16.7 nM | Ki [10]: 59.3 nM

COc1ccc(-c2c(=O)n(CCCCN3CCC(c4c[nH]c5ccccc45)CC3)c(=O)n3ccccc23)cc1
Ki [1]: 42.1 nM | deltaT (Mus musculus [2]): -0.1 °C | deltaT (Mus musculus [3]): -0.6 °C | deltaT (Mus musculus [4]): -0.3 °C | deltaT (Mus musculus [5]): -0.2 °C | deltaT (Mus musculus [9]): -0.3 °C | Activity (Mus musculus [29]): inactive | Ki [10]: 145 nM | deltaT (Mus musculus [11]): -0.1 °C | deltaT (Mus musculus [12]): -0.3 °C | deltaT (Mus musculus [13]): -0.2 °C | deltaT (Mus musculus [15]): -0.3 °C | deltaT (Mus musculus [16]): -0.2 °C | deltaT (Mus musculus [17]): -0.4 °C | deltaT (Mus musculus [18]): -0.6 °C
